In paper PMC6812009, “Covalent Aurora A regulation by the metabolic integrator coenzyme A” (Redox Biology, 2019):

Legend:
Assay type in all cases: binding
[1] = target: T1, Cys290/393Ala Aurora A mutant (Homo sapiens, UniProt O14965, C290A/C393A); experiment: In vitro CoAlation assay
T1 construct: made in house
Method: (§1) For CoAlation assays, 0.5 μg of purified recombinant preparations of wild type and mutant forms of His-Aurora A (Cys290Ala; Cys393Ala, Cys290/393Ala, Thr217Glu) and His-Aurora B (Glu161Thr) were incubated with a mixture of oxidised and reduced forms of CoA (CoASH and CoASSCoA, 1 mM final) in 20 mM Tris-HCl, pH 7.5 for 30 min at RT. The reaction was stopped by adding SDS gel-loading buffer without DTT, but containing 10 mM NEM. To examine whether binding of the 3′-phosphate ADP moiety of CoA to the Aurora A ATP binding-pocket co-ordinates the pantetheine thiol for disulfide bond formation with Cys 290, the in vitro CoAlation assay was carried out with 100 μM CoA and increasing concentrations of ATP (0–10 mM).

wild-type Aurora A = target: T2, wild-type Aurora A (Homo sapiens, UniProt O14965); experiment: In vitro CoAlation assay
T2 construct: For enzyme and DSF assays, full-length human Aurora A and Aurora B and 1–43 TPX2 were produced; made in house; host or cells: E. coli
Method: as §1

Aurora B = Aurora B (Homo sapiens, UniProt Q96GD4); experiment: In vitro CoAlation assay; conditions: optimal Aurora A assay conditions
Method: as §1

Aurora B mutant = target: T3, Aurora B mutant (Homo sapiens, UniProt Q96GD4, E161T); experiment: In vitro CoAlation assay
T3 construct: For enzyme and DSF assays, full-length human Aurora A and Aurora B and 1–43 TPX2 were produced; made in house; host or cells: E. coli BL21 (DE3) pLysS
Method: as §1

[2] = target: T4, Cys290Ala Aurora A mutant (Homo sapiens, UniProt O14965, C290A); experiment: In vitro CoAlation assay
T4 construct: For enzyme and DSF assays, full-length human Aurora A and Aurora B and 1–43 TPX2 were produced; made in house; host or cells: E. coli BL21 (DE3) pLysS
Method: as §1

[3] = target: T5, Thr217Glu mutant of Aurora A (Homo sapiens, UniProt O14965, T217E); experiment: In vitro CoAlation assay
T5 construct: For enzyme and DSF assays, full-length human Aurora A and Aurora B and 1–43 TPX2 were produced; made in house; host or cells: E. coli
Method: as §1

T217E Aurora A = target: T6, T217E Aurora A (Homo sapiens, UniProt O14965, T217E); experiment: Thermal shift assay (differential scanning fluorimetry); conditions: 5 mM ATP, 5 mM CoA or 0.1 mM MLN8237
T6 construct: For enzyme and DSF assays, full-length human Aurora A and Aurora B and 1–43 TPX2 were produced; made in house; host or cells: E. coli
T6 sequence (O14965 1-403 T217E): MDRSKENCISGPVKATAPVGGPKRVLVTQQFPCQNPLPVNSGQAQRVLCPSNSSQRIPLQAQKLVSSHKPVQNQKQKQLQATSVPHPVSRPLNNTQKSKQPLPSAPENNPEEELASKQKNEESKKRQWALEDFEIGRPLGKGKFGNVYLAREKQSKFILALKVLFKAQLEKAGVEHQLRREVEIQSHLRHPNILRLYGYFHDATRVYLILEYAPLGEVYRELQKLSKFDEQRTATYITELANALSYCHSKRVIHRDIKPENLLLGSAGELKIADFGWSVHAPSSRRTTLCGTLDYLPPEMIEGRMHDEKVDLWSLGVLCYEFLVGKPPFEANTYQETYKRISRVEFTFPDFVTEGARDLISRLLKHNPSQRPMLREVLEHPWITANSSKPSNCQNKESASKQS
Method: Asp274Asn and Thr217Glu Aurora A mutants were generated by PCR-site directed mutagenesis, expressed and purified as described previously. Cys290Ala Aurora A was generated using standard procedures, and purified as described.
Thermal-shift assays were performed with a StepOnePlus Real-Time PCR machine (Life Technologies) using Sypro-Orange dye (Invitrogen) and thermal ramping (0.3 °C in step intervals between 25 and 94 °C). All proteins were diluted to a final concentration of 5 μM in 50 mM Tris/HCl, pH 7.4 and 100 mM NaCl in the presence or absence of the indicated concentrations of ligand (final DMSO concentration no higher than 4 % v/v). CoA, dephosphoCoA or kinase inhibitors diluted from 10 mM DMSO stocks were assayed as described previously. Normalized data were processed using the Boltzmann equation to generate sigmoidal denaturation curves, and average Tm/ΔTm values calculated as previously described using GraphPad Prism software.

T1 sequence (O14965 whole entry C290A/C393A): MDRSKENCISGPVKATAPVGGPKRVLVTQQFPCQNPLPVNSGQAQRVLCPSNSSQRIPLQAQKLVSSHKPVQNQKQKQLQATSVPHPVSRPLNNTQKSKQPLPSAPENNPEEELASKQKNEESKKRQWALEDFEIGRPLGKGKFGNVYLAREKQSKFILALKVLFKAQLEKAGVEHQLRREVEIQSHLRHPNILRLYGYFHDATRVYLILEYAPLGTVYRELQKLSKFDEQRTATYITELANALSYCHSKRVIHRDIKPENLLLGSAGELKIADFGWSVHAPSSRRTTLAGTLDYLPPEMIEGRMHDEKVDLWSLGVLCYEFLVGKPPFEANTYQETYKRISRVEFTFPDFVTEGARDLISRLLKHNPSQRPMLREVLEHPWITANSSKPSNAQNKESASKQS
T2 sequence (O14965 whole entry): as the sequence (O14965 whole entry C290A/C393A) above, with A290C, A393C counted along it
T4 sequence (O14965 whole entry C290A): as the sequence (O14965 whole entry C290A/C393A) above, with A393C counted along it
Sequence of Aurora B (Q96GD4 whole entry): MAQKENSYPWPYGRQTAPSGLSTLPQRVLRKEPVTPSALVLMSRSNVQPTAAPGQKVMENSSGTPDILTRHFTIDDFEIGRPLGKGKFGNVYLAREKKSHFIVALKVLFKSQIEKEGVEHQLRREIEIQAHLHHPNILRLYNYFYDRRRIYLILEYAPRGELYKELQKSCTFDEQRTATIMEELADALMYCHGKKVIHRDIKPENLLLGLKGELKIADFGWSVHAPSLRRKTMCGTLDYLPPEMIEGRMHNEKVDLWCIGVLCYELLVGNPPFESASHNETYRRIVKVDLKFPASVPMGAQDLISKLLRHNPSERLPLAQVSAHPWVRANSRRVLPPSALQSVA
T3 sequence (Q96GD4 whole entry E161T): as the sequence (Q96GD4 whole entry) above, with E161T counted along it

## CC(C)(COP(=O)(O)OP(=O)(O)OC[C@H]1O[C@@H](n2cnc3c(N)ncnc32)[C@H](O)[C@@H]1OP(=O)(O)O)[C@@H](O)C(=O)NCCC(=O)NCCS [CoA, Coenzyme A]
[1]
  Covalent modification (binding) by CoA: no binding was detected
wild-type Aurora A
  In vitro CoAlation of Aurora A: strong CoAlation
Aurora B
  In vitro CoAlation of Aurora B: CoAlated at an extremely low level
Aurora B mutant
  CoA binding (in vitro CoAlation): strong binding
[2]
  Reduction of covalent modification by CoA in comparison to wild-type Aurora A: > 95%
[3]
  CoA binding compared to the wild-type kinase: significantly reduced CoA binding
T217E Aurora A
  Ligand-induced thermal shift: completely abolished
